{
  "source": "patent US20250081966A1",
  "about": "“HERBICIDE COMBINATIONS” (UPL CORPORATION LIMITED, priority 2021, published 2025)",
  "format_in_all_cases": "in vivo",
  "key": {"[1]": {"system": "LOLMU (S-strain)", "assay": "Efficacy of pre-emergence spray against resistant weed LOLMU (Example 1)", "conditions": "sprayed at pre-emergence stage", "experimental": "Experiments were conducted to assess the efficacy of herbicidal combination comprising napropamide/napropamide-M to control a weed (LOLMU) which is resistant to control by conventional herbicides. Percentage efficacy of the herbicidal combination was determined over time (measured as days after anthesis, [DAA]) following application the of herbicidal combination comprising napropamide/napropamide-M and prosulfocarb. The herbicidal combination was applied by spraying to LOLMU (S-strain) at pre-emergence stage."}, "[2]": {"system": "Lolium multiflorum Lam. (Italian ryegrass, LOLMU)", "assay": "Weight of the weed in wheat crop (Example 2)", "conditions": "for % Decrease in weight of weed: versus untreated control", "experimental": "(§1) Experiments were conducted to assess the efficacy of herbicidal combination comprising napropamide/napropamide-M to control a weed, Lolium multiflorum Lam. (Italian ryegrass, LOLMU) in wheat crop. The weed is resistant to control by conventional herbicides. Percentage efficacy of the herbicidal combination was determined over time (measured as days after anthesis, [DAA]) following application of the herbicidal combination comprising napropamide/napropamide-M and propisochlor. The herbicide combination was applied by spraying to LOLMU at pre-emergence stage.\nFurther, the effect of the herbicidal combination was also assessed for the weight of the weed in wheat crop and the results has been disclosed in Table 3."}, "[3]": {"system": "Lolium multiflorum Lam. (Italian ryegrass, LOLMU)", "assay": "Weed control of LOLMU in wheat crop, pre-emergence spray (Example 2)", "conditions": "450 g/L", "experimental": "as §1"}},
  "data": [
    {"compound": "CCCN(CCC)C(=O)SCc1ccccc1", "note": "[Prosulfocarb 800 g/L, prosulfocarb]", "values": [
      {"measurement": "Control in weed (%)", "setting": "[1]; dose 2400 g/Ha", "result": 68.14, "unit": "%"},
      {"measurement": "Control in weed (%)", "setting": "[1]; dose 5000 g/Ha", "result": 78.02, "unit": "%"}
    ]},
    {"compound": "CCc1cccc(C)c1N(COC(C)C)C(=O)CCl", "note": "[Propisochlor, propisochlor]", "values": [
      {"measurement": "Weight of weed (g/m^2)", "setting": "[2]; 720 g/L, dose 800 g/Ha", "result": 760, "unit": "g/m^2"},
      {"measurement": "% Decrease in weight of weed", "setting": "[2]; 720 g/L, dose 800 g/Ha", "result": 74, "unit": "%"}
    ]},
    {"compound": "CCN(CC)C(=O)[C@@H](C)Oc1cccc2ccccc12", "note": "[Napropamide-M 450 g/L, Napropamide-M]", "values": [
      {"measurement": "Control in weed (%)", "setting": "[1]; dose 315 g/Ha", "result": 69.80, "unit": "%"}
    ]},
    {"compound": "CCN(CC)C(=O)C(C)Oc1cccc2ccccc12", "note": "(stereo not drawn) [Napropamid, N,N-diethyl-2-(α-naphthoxy) propionamide]", "values": [
      {"measurement": "Weed control (%) 15 DAA", "setting": "[3]; dose 750 g/Ha", "result": 65, "unit": "%"},
      {"measurement": "Weed control (%) 25 DAA", "setting": "[3]; dose 750 g/Ha", "result": 83, "unit": "%"},
      {"measurement": "Weed control (%) 45 DAA", "setting": "[3]; dose 750 g/Ha", "result": 79, "unit": "%"},
      {"measurement": "Weed control (%) 15 DAA", "setting": "[3]; dose 1000 g/Ha", "result": 72, "unit": "%"},
      {"measurement": "Weed control (%) 25 DAA", "setting": "[3]; dose 1000 g/Ha", "result": 86, "unit": "%"},
      {"measurement": "Weed control (%) 45 DAA", "setting": "[3]; dose 1000 g/Ha", "result": 82, "unit": "%"},
      {"measurement": "Weight of weed (g/m^2)", "setting": "[2]; 450 g/L, dose 750 g/Ha", "result": 2.11, "unit": "g/m^2"},
      {"measurement": "% Decrease in weight of weed", "setting": "[2]; 450 g/L, dose 750 g/Ha", "result": 27, "unit": "%"},
      {"measurement": "Weight of weed (g/m^2)", "setting": "[2]; 450 g/L, dose 1000 g/Ha", "result": 1.86, "unit": "g/m^2"},
      {"measurement": "% Decrease in weight of weed", "setting": "[2]; 450 g/L, dose 1000 g/Ha", "result": 36, "unit": "%"}
    ]}
  ]
}
